The values below are quoted from earlier work in patent US20060198888A1, “Tolperisone-containing pharmaceutical preparation with controllable active-substance release for oral administration” (Sanochemia Pharmazeutika AG, priority 2004, published 2006).

The conditions of series [1]: rat.
The conditions of series [2]: JP-A-53-40779.

SMILES strings stand for the structures. Read-outs that look alike come from different tables or passages of the source.

In the case of `Cc1ccc(C(=O)C(C)CN2CCCCC2)cc1` (stereo not drawn) [R(−) tolperisone], the “fraction converted by in-vivo inversion into S(+) tolperisone” value in series [1] was “up to 20%”. Besides, in series [2] (listed as 1-tolperisone), the pharmacological effect result was “vaso- or bronchodilatory effect”.

For the compound `Cc1ccc(C(=O)C(C)CN2CCCCC2)cc1` (stereo not drawn) [S(+) tolperisone], the “extent of in-vivo inversion into R(−) tolperisone” value in series [1] is given as “up to 20%”. For the same compound, in series [2] (listed as d-tolperisone), the pharmacological effect entry is on record as “muscle-relaxing effect”.
